Measured values reported in patent publication US20240175876A1, “PERIPLASMIC LIGAND TRAPPING SYSTEM” (UNIVERSITY OF MIAMI, priority 2022, published 2024).

Biological target: T1, Angiotensin II Receptor Type I (AGTR1) (Homo sapiens, UniProt P30556)
T1 construct: expressed in transfected cells; host or cells: Saccharomyces cerevisiae strain DI DCyFIR P1 I (humanized Gαi)
T1 sequence (P30556 1-359): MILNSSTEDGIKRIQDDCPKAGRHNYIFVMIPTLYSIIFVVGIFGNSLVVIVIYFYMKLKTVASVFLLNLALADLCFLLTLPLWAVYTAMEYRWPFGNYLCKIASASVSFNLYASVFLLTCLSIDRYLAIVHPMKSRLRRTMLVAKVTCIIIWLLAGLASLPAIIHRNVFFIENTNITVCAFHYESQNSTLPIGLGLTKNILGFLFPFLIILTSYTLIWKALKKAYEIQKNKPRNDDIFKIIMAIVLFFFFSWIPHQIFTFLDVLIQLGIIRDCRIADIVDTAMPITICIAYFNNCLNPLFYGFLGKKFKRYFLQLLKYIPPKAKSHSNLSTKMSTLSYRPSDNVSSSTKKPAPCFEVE
Assay: AGTR1 modulation via intracellular nanobodies, galactose-induced AGT-II, mTq2 reporter in yeast
Assay type: cell-based
Conditions: galactose-induced secreted ligand, Gαi strain; FIG. 5B

angiotensin II [AGT-II] was tested, and the “AGTR1 activation by inducible expression of ligand” value was “successfully resulted in AGTR1 activation”.
